Experimental findings from patent US20150132342A1, “NOVEL IMMUNE ACTIVATORS: SUBSTITUTE 4-AMINOQUINAZOLINES” (The Regents of the University of California, priority 2013, published 2015) are described below.

Molecules are shown by their SMILES.

Format in all cases: cell-based
Data set [1] addresses T1, TLR4/MD-2/CD14 (Homo sapiens, UniProt O00206+Q9Y6Y9).
T1 construct: host or cells: HEK293 (HEK Blue hTLR4)
Nature of the data set: hTLR4 HEK Blue reporter cells, NF-κB SEAP secretion (QuantiBlue OD630). The note with it: for hTLR4 0.5 μM: Quantiblue OD630 of hTLR4 HEK Blue cells, normalized to LPS positive control=100. On the procedure: In vitro assays using TLR reporter cell lines. Murine or humanTLR4 HEK Blue™ cells (Invivogen, 2.5×10^4 cells per well of a 96 well plate), or NF-κB/SEAPorter™ HEK 293 cells (Imgenex, San Diego, Calif.) for human TLR2, TLR3, TLR5, TLR7, TLR8, or TLR9 (5×10^4 cells per well of 96 well plate) were incubated with graded doses of the test compound. The culture supernatants were harvested after a 20-24 h incubation period. Secreted alkaline phosphatase (SEAP) activity in the supernatants was determined by a colorimetric assay, using either the SEAPorter Assay Kit (Imgenex, San Diego, Calif.), with absorbance read at 405 nm, or QuantiBlue (Invivogen), with absorbance read at 630 nm. In some experiments, graded concentrations of LPS-RS ([…], Invivogen) were used to test TLR4-specific binding of the hit compound.

The test system of data set [2] is human PBMC. In words: IL-8 release in human PBMC (ELISA). The settings on record: Homo sapiens, PBMC, 18 h; 0.5 μM; IL-8 release, normalized to LPS positive control=100. The method, then: In vitro activities in human peripheral blood mononuclear cells (PBMC). Human PBMC were isolated from buffy coats obtained from the San Diego Blood Bank (San Diego, Calif.) as described previously.^5,6 PBMC (1×10^6/mL) were incubated with various compounds in complete RPMI (Omega Scientific) for 18 h at 37° C., 5% CO2 and culture supernatants were collected. The levels of IL-8 in the supernatants were determined by ELISA (BD Biosciences).
Background: An ELISA detects its analyte on a solid surface through an enzyme-linked reagent.

The subject of data set [3] is HepG2 cells. In words: MTT assay in HepG2 cells. The settings on record: compounds tested at 10 μM; normalized with OD570-650 of vehicle treatment; in % (unit assumed).
Data set [4] has as its target T2, human TLR4/MD-2 (Homo sapiens, UniProt O00206+Q9Y6Y9).
T2 construct: expressed in transfected cells; host or cells: bone marrow derived macrophages of human TLR4 transgenic mice on a murine TLR4/MD-2 null C57BL/6 background (gift of Dr. L. Hajjar)
In words: BMDM from transgenic mice expressing human TLR4/MD-2 (IL-6, IP-10). The note with it: BMDM from human TLR4/MD-2 transgenic mice deficient for murine TLR4/MD-2. The source says:
Animals. Seven to 9 week-old C57BL/6 (wild type, WT) and Cd14^−/− (C57BL/6 background) mice were purchased from the Jackson Laboratories (Bar Harbor, Mass.). Tlr4^−/− mice (C57BL/6 background) were a gift from Dr. Shizuo Akira (Osaka University, Japan) and were backcrossed for 10 generations onto the C57BL/6 background at University of California, San Diego (UCSD). MD-2^−/− mice (C57BL/6 background) were originally generated by Dr. K. Miyake (University of Tokyo, Tokyo, Japan) and were kindly provided by Dr. L. Hajjar (University of Washington, Seattle, Wash.). Human TLR4 transgenic mice on murine TLR4/MD-2 null C57BL/6 background were kindly provided by Dr. L. Hajjar.^3 All animal experiments were approved by the UCSD Institutional Animal Care and Use Committee.
In vitro cytokine induction in bone marrow derived dendritic cells (BMDC) and macrophages (BMDM). […] The levels of IL-6 or IP-10 in the culture supernatants were determined by ELISA (BD Biosciences, La Jolla, Calif.).^5 Finally, all levels of cytokine release were normalized to those of LPSstimulation within each experiment, set at 100.

T1 sequence (O00206 24-839): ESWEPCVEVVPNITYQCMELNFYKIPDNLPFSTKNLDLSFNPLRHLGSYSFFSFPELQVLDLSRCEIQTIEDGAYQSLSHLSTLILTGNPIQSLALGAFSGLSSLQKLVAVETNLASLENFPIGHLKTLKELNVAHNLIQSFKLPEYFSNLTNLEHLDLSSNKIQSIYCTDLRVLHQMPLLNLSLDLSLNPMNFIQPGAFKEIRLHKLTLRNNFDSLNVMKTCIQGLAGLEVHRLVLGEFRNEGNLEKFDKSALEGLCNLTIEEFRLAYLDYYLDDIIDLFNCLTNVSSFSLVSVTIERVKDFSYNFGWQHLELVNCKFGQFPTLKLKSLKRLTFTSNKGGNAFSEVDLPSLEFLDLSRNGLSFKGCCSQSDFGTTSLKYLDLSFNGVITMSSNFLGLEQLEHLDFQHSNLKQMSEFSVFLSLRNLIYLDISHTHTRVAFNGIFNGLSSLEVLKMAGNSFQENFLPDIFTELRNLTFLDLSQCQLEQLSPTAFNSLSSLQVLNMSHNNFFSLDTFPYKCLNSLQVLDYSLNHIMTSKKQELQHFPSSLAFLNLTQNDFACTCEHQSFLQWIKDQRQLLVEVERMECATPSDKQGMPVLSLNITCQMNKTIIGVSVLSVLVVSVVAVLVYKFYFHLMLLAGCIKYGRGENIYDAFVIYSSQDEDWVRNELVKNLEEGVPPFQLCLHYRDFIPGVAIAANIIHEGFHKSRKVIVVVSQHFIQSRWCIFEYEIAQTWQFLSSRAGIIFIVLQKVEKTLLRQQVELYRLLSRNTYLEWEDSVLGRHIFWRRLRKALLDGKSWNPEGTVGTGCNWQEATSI
T1 sequence (Q9Y6Y9 19-160): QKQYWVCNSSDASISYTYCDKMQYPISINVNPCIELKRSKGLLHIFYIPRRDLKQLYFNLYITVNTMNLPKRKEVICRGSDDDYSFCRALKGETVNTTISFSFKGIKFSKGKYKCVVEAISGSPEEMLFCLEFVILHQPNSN
T2 sequence (O00206 24-839): as the sequence (O00206 24-839) above
T2 sequence (Q9Y6Y9 19-160): as the sequence (Q9Y6Y9 19-160) above

As to `CCOC(=O)c1nc(Nc2cc(Oc3ccccc3Br)cc([N+](=O)[O-])c2)c2ccccc2n1` [Compound 1g, Ethyl 4-((3-(2-bromophenoxy)-5-nitrophenyl)amino)quinazoline-2-carboxylate], the “hTLR4 0.5 μM” value in data set [1] came to 79.0. For the same molecule, in data set [1] (TLR4 reporter cells and hPBMC), the “Activity relative to compound 1a (SAR in words)” value is recorded as “enhanced”. In data set [2], this molecule came in with an IL-8 release (% of LPS control) at 0.5 µM of 35.6%. Also, the “HepG2 MT” value in data set [3] is 90.8. Also, the “Activation of transgenic human TLR4/MD-2 complex relative to mouse TLR4/MD-2” value in data set [4] is listed as “to a greater extent”.

Turning to `Nc1cc(Nc2nc(C(=O)O)nc3ccccc23)cc(Oc2ccccc2)c1` [Compound 6a, 4-((3-Amino-5-phenoxyphenyl)amino)quinazoline-2-carboxylic acid], the “hTLR4 0.5 μM” value in data set [1] was found to be 1.1. Besides, the IL-8 release (% of LPS control) at 0.5 µM in data set [2] turned out to be 0.3%. Further, the “HepG2 MT” value in data set [3] was 105.0.

Regarding `O=C(O)c1nc(Nc2cc(Oc3ccccc3)cc([N+](=O)[O-])c2)c2ccccc2n1` [Compound 7a, 4-((3-Nitro-5-phenoxyphenyl)amino)quinazoline-2-carboxylic acid], in data set [1], the “hTLR4 0.5 μM” value turned out to be 0.6. The IL-8 release (% of LPS control) at 0.5 µM in data set [2] was determined as 0.5%. Besides, in data set [3], the “HepG2 MT” value amounted to 84.5.

As to `O=C(O)c1nc(Nc2cc(Oc3ccccc3Br)cc([N+](=O)[O-])c2)c2ccccc2n1` [Compound 7g, 4-((3-(2-Bromophenoxy)-5-nitrophenyl)amino)quinazoline-2-carboxylic acid], the “hTLR4 0.5 μM” value in data set [1] is on record as 1.6. Also, the IL-8 release (% of LPS control) at 0.5 µM in data set [2] amounted to 0%. The “HepG2 MT” value in data set [3] was determined as 96.3.

Turning to `CCNC(=O)c1nc(Nc2cc(Oc3ccccc3)cc([N+](=O)[O-])c2)c2ccccc2n1` [Compound 8a, N-Ethyl-4-((3-nitro-5-phenoxyphenyl)amino)quinazoline-2-carboxamide], the “hTLR4 0.5 μM” value in data set [1] is given as 2.2. Moreover, the IL-8 release (% of LPS control) at 0.5 µM in data set [2] turned out to be 1.5%. Besides, the “HepG2 MT” value in data set [3] is 107.4.

Consider `NC(=O)c1nc(Nc2cc(Oc3ccccc3)cc([N+](=O)[O-])c2)c2ccccc2n1` [Compound 9a, 4-((3-nitro-5-phenoxyphenyl)amino)quinazoline-2-carboxamide], for which the “hTLR4 0.5 μM” value in data set [1] amounted to 0.0. Besides, the IL-8 release (% of LPS control) at 0.5 µM in data set [2] stood at 0.3%. In addition, the “HepG2 MT” value in data set [3] is on record as 78.4.

`COC(=O)c1nc(Nc2cc(Oc3ccccc3)cc([N+](=O)[O-])c2)c2ccccc2n1` [Compound 10a, Methyl 4-((3-nitro-5-phenoxyphenyl)amino)quinazoline-2-carboxylate]: the “hTLR4 0.5 μM” value in data set [1] stood at 0.4. The molecule further returned an IL-8 release (% of LPS control) at 0.5 µM in data set [2] of 0.2%. Moreover, the “HepG2 MT” value in data set [3] is 116.4.

In the case of `CC(C)OC(=O)c1nc(Nc2cc(Oc3ccccc3)cc([N+](=O)[O-])c2)c2ccccc2n1` [Compound 11a, Isopropyl 4-((3-nitro-5-phenoxyphenyl)amino)quinazoline-2-carboxylate], the “hTLR4 0.5 μM” value in data set [1] is on record as 7.4. Moreover, the IL-8 release (% of LPS control) at 0.5 µM in data set [2] is 2.1%. In data set [3], the “HepG2 MT” value is reported as 65.6.

Consider `CC(C)CCOC(=O)c1nc(Nc2cc(Oc3ccccc3)cc([N+](=O)[O-])c2)c2ccccc2n1` [Compound 12a, Isopentyl 4-((3-nitro-5-phenoxyphenyl)amino)quinazoline-2-carboxylate], for which the “hTLR4 0.5 μM” value in data set [1] was 8.4. In data set [2], this molecule returned an IL-8 release (% of LPS control) at 0.5 µM of 2.2%. Further, in data set [3], the “HepG2 MT” value was 63.4.

On to `CC(C)OC(=O)c1nc(Nc2cc(Oc3ccccc3Br)cc([N+](=O)[O-])c2)c2ccccc2n1` [Compound 13g, Isopropyl 4-((3-(2-bromophenoxy)-5-nitrophenyl)amino)quinazoline-2-carboxylate], for which the “hTLR4 0.5 μM” value in data set [1] is 67.8. In addition, the IL-8 release (% of LPS control) at 0.5 µM in data set [2] came out at 19.2%. Moreover, the “HepG2 MT” value in data set [3] is 106.5.
